Test system: Female mosquitoes, Aedes aegypti
Assay: Y-tube olfactometer insect repellency assay
Assay type: in vivo
Design: key to Significance (attraction vs Control): NS—not significant; *, ** - significantly different; *, ** - significantly different
Details: 98%

## CCN(CC)C(=O)c1cccc(C)c1 [DEET, N,N-diethyl-3-methylbenzamide]
  insect repellency, in words: strongest repellency
Vs mineral oil control
  Significance (attraction vs Control): **

— patent US11116210B2 (priority 2017, dated 2021)
